Values quoted from earlier work in patent US11559495B1, “Icariin nano-pharmaceutical formulation” (King Abdulaziz University, priority 2022, dated 2023).

Tests used:
[1] = molecular target: cGMP-specific phosphodiesterase type 5 (PDE5) (Homo sapiens, UniProt O76074)
MAO-A = molecular target: T1, MAO-A (Homo sapiens, UniProt P21397)
T1 sequence (P21397 1-527): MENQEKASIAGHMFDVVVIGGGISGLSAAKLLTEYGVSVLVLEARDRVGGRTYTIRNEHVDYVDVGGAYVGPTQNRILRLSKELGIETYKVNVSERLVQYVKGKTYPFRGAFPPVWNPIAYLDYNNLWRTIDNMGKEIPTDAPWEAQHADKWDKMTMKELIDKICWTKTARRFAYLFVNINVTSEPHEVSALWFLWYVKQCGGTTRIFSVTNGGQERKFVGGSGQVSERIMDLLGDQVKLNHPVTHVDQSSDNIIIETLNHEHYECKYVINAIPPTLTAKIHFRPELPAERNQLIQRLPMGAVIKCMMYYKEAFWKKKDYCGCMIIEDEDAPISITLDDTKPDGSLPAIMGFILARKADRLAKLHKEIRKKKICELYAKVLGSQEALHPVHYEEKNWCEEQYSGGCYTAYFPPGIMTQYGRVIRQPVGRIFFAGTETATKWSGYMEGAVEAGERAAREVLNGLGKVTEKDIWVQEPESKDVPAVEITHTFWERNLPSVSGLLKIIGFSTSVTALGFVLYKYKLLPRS

MAO-B = molecular target: T2, MAO-B (Homo sapiens, UniProt P27338)
T2 sequence (P27338 1-520): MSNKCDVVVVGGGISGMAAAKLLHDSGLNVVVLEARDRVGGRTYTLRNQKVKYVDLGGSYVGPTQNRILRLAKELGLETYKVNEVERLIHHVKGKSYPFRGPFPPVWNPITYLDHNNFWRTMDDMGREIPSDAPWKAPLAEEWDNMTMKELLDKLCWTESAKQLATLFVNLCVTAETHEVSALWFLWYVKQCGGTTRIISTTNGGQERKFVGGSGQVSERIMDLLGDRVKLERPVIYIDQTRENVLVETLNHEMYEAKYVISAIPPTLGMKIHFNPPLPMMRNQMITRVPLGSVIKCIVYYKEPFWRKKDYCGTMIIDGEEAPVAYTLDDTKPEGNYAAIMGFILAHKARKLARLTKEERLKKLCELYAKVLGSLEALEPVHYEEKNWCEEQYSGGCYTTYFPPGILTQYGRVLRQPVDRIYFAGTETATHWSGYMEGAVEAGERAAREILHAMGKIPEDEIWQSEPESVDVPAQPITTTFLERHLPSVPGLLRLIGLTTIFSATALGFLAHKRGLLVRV

COc1ccc(-c2oc3c(CC=C(C)C)c(O[C@@H]4O[C@H](CO)[C@@H](O)[C@H](O)[C@H]4O)cc(O)c3c(=O)c2O[C@@H]2O[C@@H](C)[C@H](O)[C@@H](O)[C@H]2O)cc1 [ICA, 7-(β-D-Glucopyranosyloxy)-5-hydroxy-4′-methoxy-8-(3-methylbut-2-en-1-yl)-3-(α-L-rhamnopyranosyloxy)flavone]
PDE5 inhibition [1]: inhibitor | MAO-A activity inhibition (MAO-A): inhibited | MAO-B activity inhibition (MAO-B): inhibited
